# Experimental data reported in patent US20060211705A1, “'N-(2-chloro-6-methylphenyl)-2-[[6-[4-(2-hydroxyethyl)-1-piperazinyl]-2-methyl-4-pyrimidinyl]amino]-5-thiazolecarboxamides metabolites” (priority 2005, published 2006).
# Experiments:
# [1] = Radioactive metabolites in plasma, urine and feces after single oral dose of [14C] compound (I) to monkeys; type: in vivo, cynomolgus monkey; settings: for % Distribution of radioactive metabolites in pooled plasma, Monkey (4 h): oral 10 mg/kg [14C] compound (I), plasma 4 h; for Metabolites in Feces (0-168 hr), Monkey, % Dose / Metabolites in Feces (0-168 hr), Monkey, % Rad / Metabolites in Urine (0-168 hr), Monkey, % Dose / Metabolites in Urine (0-168 hr), Monkey, % Rad: oral 10 mg/kg; for Metabolites in Feces (0-168 hr), Monkey, % Dose / Metabolites in Feces (0-168 hr), Monkey, % Rad: pooled fecal extracts 0-168 hr; for Metabolites in Urine (0-168 hr), Monkey, % Dose / Metabolites in Urine (0-168 hr), Monkey, % Rad: pooled urine 0-168 hr
# Procedure: A separate bile-duct cannulated (BDC) monkey study was also conducted.
# Plasma samples were segregated by collection time and equal volumes of individual plasma samples at a given time point were combined for biotransformation profiling.
# (§1) The C-14 label was on the carbon-2 of the thiazole ring.
# (§2) HPLC was performed on an Agilent 1100™ system equipped with binary pumps, autoinjector, and a column heater. A Phenomenex Synergy Polar-RP® column (4.6×250 mm, 5 micron) was used for metabolite separation. All HPLC analyses were performed at 1 mL/min flow rate at 35° C. The HPLC mobile phase consisted of (A) water with 0.1% formic acid and (B) acetonitrile with 0.1% formic acid.
# (§3) Each fraction of column eluent was evaporated to dryness on a Savant Speed-Vac (Savant Instruments Inc., Holbrook, N.Y.) and counted for radioactivity with a Packard Top Count® microplate scintillation analyzer (Packard Biosciences, Downers Grove, Ill.).
# The volumes of pooled plasma processed for HPLC analysis for rat, monkey and human ranged between 1.5 and 8.0 mL. Pooled plasma samples were extracted with methanol/acetonitrile (1:1) at a ratio of 2 volumes solvent to 1 volume of plasma. The mixtures were vortex mixed, sonicated for 5 min, and centrifuged at 3500 rpm for 10 min. The supernatants were transferred into new tubes. The remaining pellets were extracted two more times with 3 mL of methanol/acetonitrile (1:1). The supernatants were combined and evaporated to dryness in a Savant Speed-Vac (Savant Instruments, Inc., Holbrook, N.Y.). The residue was reconstituted into 0.35 to 0.45 mL of 30% acetonitrile in water, vortex mixed and centrifuged at 13000 rpm for 5 min (American Scientific Products Biofuge A centrifuge, Heraeus Sepatech GmbH, Germany). The supernatant was injected onto the HPLC for profiling. Aliquots of the reconstituted samples (30 μl) were also counted on the liquid scintillation counter (LSC) to determine the recovery of radioactivity.
# (§4) The pooled monkey and human urine samples (3-5 mL) were extracted with 2 volumes of acetonitrile/acetone (1:1). The mixtures were vortex mixed, sonicated and centrifuged at 3500 rpm for 10 min. The supernatants were evaporated to dryness. The residue was suspended in 0.3-0.5 mL of 30% acetonitrile in water and centrifuged at 13000 rpm for 5 min. Aliquots of the supernatants were injected onto the HPLC or analyzed by LSC for radioactivity recovery. Pooled urine samples from BDC monkeys and rats were centrifuged at 13000 rpm for 10 min and injected onto the HPLC for profiling without further treatment.
# The amount of fecal homogenate used for analysis was 0.20, 0.19 and 0.51 g for rat, monkey and human, respectively. Each pooled fecal homogenate was extracted by addition of 3 volumes of acetonitrile/methanol (1:1) to 1 volume of fecal homogenate and mixed on a vortex mixer. The mixture was sonicated for 5 min and then centrifuged at 3000 rpm for 10 min. The supernatants were removed and saved. The extraction was repeated two additional times and the supernatants were combined and evaporated to dryness on a Savant Speed-Vac. […] An aliquot of the supernatant was injected onto the HPLC or analyzed by LSC for radioactivity recovery.
# (§5) The LC/MS system used for analysis of plasma, urine, bile, and fecal samples consisted of an Agilent 1100™ HPLC system connected to a Finnigan LCQ-DecaXP mass spectrometer. Samples were analyzed using positive electrospray ionization. The capillary temperature used for analysis was 320° C., and the nitrogen gas flow rate, spray current, and voltages were adjusted to give maximum sensitivity. The HPLC conditions were described in section 3.3.1.
# (§6) Counts per min (CPM) were determined on a Packard TopCount NXT microplate scintillation and luminescence counter. For each injection, the average CPM value (2-4 CPM) obtained from fractions between 2-3 min (column void) in the chromatogram was subtracted from the CPM value of each fraction.
# [2] = Radioactive metabolites in urine and bile after IV administration of [14C] compound (I) to bile-duct cannulated monkeys; type: in vivo, monkey; settings: IV infusion 2 mg/kg; for Metabolites in BDC-Monkeys (0-72 hr), Bile, % Dose / Metabolites in BDC-Monkeys (0-72 hr), Bile, % Rad: bile 0-72 hr; for Metabolites in BDC-Monkeys (0-72 hr), Urine, % Dose / Metabolites in BDC-Monkeys (0-72 hr), Urine, % Rad (% of total radioactivity in sample): urine 0-72 hr
# Procedure: A separate bile-duct cannulated (BDC) monkey study was also conducted. […]
# as §1, §2, §3, §4
# A pooled bile sample (0-72 h) from BDC monkeys was diluted fifteen-fold with 20% acetonitrile in water with 0.1% formic acid. The diluted sample was centrifuged at 13000 rpm for 5 min. Aliquots of the supernatant was injected onto HPLC or analyzed by LSC for radioactivity recovery.
# as §5
# as §6, with “fraction. Biotransformation profiles were prepared by plotting the background subtracted CPM values against time-after-injection. Radioactivity peaks in the biotransformation profiles were reported as a percentage of the total radioactivity (after background subtraction) collected during the entire HPLC run.” for “fraction.”
SMILES,"% Distribution of radioactive metabolites in pooled plasma, Monkey (4 h) [1]","Metabolites in Feces (0-168 hr), Monkey, % Dose [1]","Metabolites in Feces (0-168 hr), Monkey, % Rad [1]","Metabolites in Urine (0-168 hr), Monkey, % Dose [1]","Metabolites in Urine (0-168 hr), Monkey, % Rad [1]","Metabolites in BDC-Monkeys (0-72 hr), Bile, % Dose [2]","Metabolites in BDC-Monkeys (0-72 hr), Bile, % Rad [2]","Metabolites in BDC-Monkeys (0-72 hr), Urine, % Dose [2]","Metabolites in BDC-Monkeys (0-72 hr), Urine, % Rad (% of total radioactivity in sample) [2]"
Cc1nc(Nc2ncc(C(=O)Nc3c(C)cccc3Cl)s2)cc(N2CCNCC2)n1 [M4 (II)],3.0%,2.9%,3.8%,0.05%,1.7%,0.5%,0.7%,,
Cc1nc(Nc2ncc(C(=O)Nc3c(C)cccc3Cl)s2)cc(N2CC[N+]([O-])(CCO)CC2)n1 [M5 (III)],2.6%,,,1.1%,35.8%,5.0%,7.4%,7.0%,70.7%
"Cc1nc(Nc2ncc(C(=O)Nc3c(C)cccc3Cl)s2)cc(N2CCN(CC(=O)O)CC2)n1 [M6 (IV), 2-(4-(6-(5-((2-Chloro-6-methylphenyl)carbamoyl)thiazol-2-ylamino)-2-methylpyrimidin-4-yl)piperazin-1-yl)acetic acid]",2.7%,14.0%,18.2%,0.06%,2.2%,6.3%,9.4%,0.3%,2.8%
Cc1nc(Nc2ncc(C(=O)Nc3c(C)cc(O)cc3Cl)s2)cc(N2CCN(CCO)CC2)n1 [M20 (V)],2.8%,11.7%,15.2%,0.02%,0.6%,2.4%,3.5%,0.3%,2.7%
"Cc1nc(Nc2ncc(C(=O)Nc3c(Cl)cccc3CO)s2)cc(N2CCN(CCO)CC2)n1 [M24 (VI), N-(2-chloro-6-(hydroxymethyl)phenyl)-2-(6-(4-(2-hydroxyethyl)piperazin-1-yl)-2-methylpyrimidin-4-ylamino)thiazole-5-carboxamide]",0.7%,6.6%,8.6%,0.06%,1.9%,3.0%,4.4%,0.1%,1.4%
"Cc1nc(Nc2ncc(C(=O)Nc3c(C)cccc3Cl)s2)cc(N2CCN(CCO)CC2)n1 [Parent (I), N-(2-Chloro-6-methylphenyl)-2-[[6-[4-(2-hydroxyethyl)-1-piperazinyl]-2-methyl-4-pyrimidinyl]amino]-5-thiazolecarboxamide]",32.1%,24.7%,32.2%,0.6%,21.2%,3.2%,4.7%,0.1%,1.4%
